Laboratory results taken from US20100098788A1, “Extracts of Curcuma and Methods of Use Thereof” (priority 2008, published 2010).
Read-outs that look alike come from different tables or passages of the source. Values belong to the compound of their own block, whether it stands above or below them.

Assays:
Aβ1-42 aggregation = target: T1, Aβ1-42 aggregation (Homo sapiens, UniProt P05067); assay: Interaction matrices of Extract 1 with extracts and curcuminoids in the Aβ1-42 aggregation assay; type: biochemical
T1 construct: carried out with the synthetic Aβ1-42 peptide incubated with the extracts

Aβ1-42 peptide = target: T2, Aβ1-42 peptide (Homo sapiens, UniProt P05067); assay: Amyloid aggregation assay (thioflavin T fluorescence); type: biochemical; details: 0 to 30 μg mL^−1, 120 h, 37° C.
T2 construct: carried out with the synthetic Aβ1-42 peptide incubated with the extracts

[1] = test system: phosphorylated tau (Ser199/220 and AT8 antibodies) in Tg2576 mice; assay: Western blot of phosphorylated tau in brain homogenates after oral treatment; type: in vivo; details: soluble fraction, oral 0.07% in chow, 6 months
Description: The Tg2576 mice, which are engineered to develop AD within ca. 6 months after birth, were purchased from Taconic (Germantown, N.Y.). For oral administration of extracts, a total of 60 (30 female/30 male) Tg2576 mice with a B6/SJL background were employed. Beginning at 8 months of age, Tg2576 treatment mice were administered optimized turmeric Extract 1 and THC in NIH31 chow (0.07% in NIH31 chow, 167 mg/kg/day) or NIH31 chow alone (Control) for 6 months [n=20 (10 female/10 male)]. All mice were sacrificed at 14 months of age for analyses of Aβ levels and Aβ load in the brain according to previously described methods (J. Tan, T. Town, F. Crawford, T. Mori, A. DelleDonne, R. Crescentini, D. Obregon, R. A. Flavell and M. J. Mullan, 2002. Role of CD40 ligand in amyloidosis in transgenic Alzheimer's mice, Nat. Neurosci. 5:1288-1293). […]
Brain homogenates were obtained as previously described above. […] Densitometric analysis was done as previously described using a FluorS Multiimager with Quantity One™ software (BioRad, Hercules, Calif.) (K. Rezai-Zadeh, D. Shytle, N. Sun, T. Mori, H. Hou, D. Jeanniton, J. Ehrhart, K. Townsend, J. Zeng, D. Morgan, J. Hardy, T. Town and J. Tan, 2005. Green tea epigallocatechin-3-gallate (EGCG) modulates amyloid precursor protein cleavage and reduces cerebral amyloidosis in Alzheimer transgenic mice, J. Neurosci. 25:8807-8814).

[2] = test system: IL-4 and IL-2 in splenocytes of Tg2576 mice; assay: Cytokine ELISA of anti-CD3 stimulated primary splenocyte cultures from treated mice; type: in vivo; details: splenocytes stimulated 24 h with anti-CD3 antibody
Description: FIG. 9 depicts the IL-4 to IL-2 cytokine profile of Extract 1- and THC-treated Tg2576 mice. Following sacrifice, primary cultures of splenocytes were established from the mice and stimulated for 24 hours with anti-CD3 antibody.
The Tg2576 mice, which are engineered to develop AD within ca. 6 months after birth, were purchased from Taconic (Germantown, N.Y.). For oral administration of extracts, a total of 60 (30 female/30 male) Tg2576 mice with a B6/SJL background were employed. […]
As described in the previous studies (J. Tan, T. Town, D. Paris, T. Mori, Z. Suo, F. Crawford, M. P. Mattson, R. A. Flavell and M. Mullan, 1999. Microglial activation resulting from CD40-CD40L interaction after beta-amyloid stimulation, Science. 286:2352-2355; J. Tan, T. Town, M. Saxe, D. Paris, Y. Wu and M. Mullan, 1999. Ligation of microglial CD40 results in p44/42 mitogen-activated protein kinase-dependent TNF-alpha production that is opposed by TGF-beta 1 and IL-10, J. Immunol. 163:6614-6621) cell cultured media were collected for measurement of cytokines by commercial cytokine ELISA kits. […] Cytokines were quantified using commercially available ELISAs (BioSource International, Inc., Camarillo, Calif.) that allow for detection of IL-2 and IL-4. […]

[3] = test system: Aβ1-40, 42 peptides secreted from SweAPP N2a cells; assay: Aβ secretion ELISA in conditioned media of SweAPP N2a cells; type: cell-based; details: 3-30 μg/ml, 12 h

T1 sequence (P05067 672-713): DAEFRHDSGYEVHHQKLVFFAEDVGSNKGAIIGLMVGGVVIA
T2 sequence (P05067 672-713): as above

Effect (Aβ1-42 aggregation; interaction with Extract 1 (synergistic, antagonistic or additive)): Additive
inhibition of Aβ1-42 aggregation (Aβ1-42 peptide): effective
Compound: COc1cc(/C=C/C(=O)CC(=O)/C=C/c2ccc(O)c(OC)c2)ccc1O [Curcumin, curcumin]

Compound: COc1cc(CCC(=O)CC(=O)CCc2ccc(O)c(OC)c2)ccc1O [THC, tetrahydrocurcumin]
reduction of tau hyper-phosphorylation compared to control [1]: ca. 40%
IC50 (Aβ1-42 aggregation): 95.3 µM
ratio of IL-4 to IL-2 cytokine levels [2]: 0.8

Compound: COc1cc(/C=C/C(O)=C/C(=O)/C=C/c2ccc(O)cc2)ccc1O [DMC, demethoxycurcumin]
inhibition of Aβ generation [3]: ca. 10%
IC50 (Aβ1-42 aggregation; extract or standard alone, Aβ1-42 aggregation, read-out: IC50 Individual (converted)): 1700 µM
